# Where two headings read alike, the source gives them in different places.
# Experiments:
# [1] = MTT cytotoxicity, CEM cells; assay type: cell-based, human; settings: human, T lymphoblast CEM-CCRF (CEM) cells
# Experimental: (§1) Human peripheral blood mononuclear (PBM), T lymphoblast CEM-CCRF (herein referred to as CEM cells), African green monkey kidney (Vero), or human liver carcinoma (HepG2) cells were tested via MTT assay using the CellTiter 96 Non-Radioactive Cell Proliferation (Promega) kit as previously described.[63]
# Cp149 capsid assembly = biological target: T1, Cp149 capsid assembly (Hepatitis B virus genotype D subtype adw, UniProt P03147); test: Transmission electron microscopy of assembled Cp149 products; assay type: biochemical; settings: for % abnormal capsids, Trial 2 / effect on capsid morphology (TEM) / % abnormal capsids, Trial 1: 20 μM Cp149, 40 μM compound; for % abnormal capsids, Trial 2 / % abnormal capsids, Trial 1: 500 mM NaCl; for % abnormal capsids, Average: average of two trials
# T1 construct: The N-terminal domain of Cp (Cp149) is sufficient for forming regular capsids; made in house; host or cells: E. coli BL21(DE3)
# Experimental: The assembled samples of Cp149 were prepared as described in the Size Exclusion Chromatography section. Eight μL of each sample was added onto the 300 mesh Lacey Formvar carbon–copper grids (Ted Pella, Inc.) and allowed to sit for 1.5 min. The grid was then rinsed in 500 mL of deionized water for 10 s twice to rinse off the extra buffer on the grid. After drying, the sample was stained with 8 μL of 2% uranyl acetate for 1 min. After removal and drying of the uranyl acetate solution, the sample was imaged with a Hitachi HT7700 electron microscope at an accelerating voltage of 120 kV, at the IMat Materials Characterization Facility of Georgia Institute of Technology. The images underwent processing using ImageJ software. Initially, to minimize noise, a Gaussian blur filter was applied. These images were then converted into an 8 bit binary format for edge detection. ImageJ identified particles ranging in size from 800 to 2000 pixels. An example of a processed image can be seen in Figure S14. The circularity of each particle was calculated using the formula circularity = 4π × area × perimeter^–2. […] A total of four images, each containing a minimum of 100 capsids, were analyzed to determine the proportion of the abnormal capsids. The entire experiment was duplicated, and the outcomes from both sets were then averaged.
# [2] = MTT cytotoxicity, HepG2 cells; assay type: cell-based, human; settings: human, HepG2 cells (liver carcinoma)
# Experimental: as §1
# Cp149 = biological target: T2, Cp149 (Hepatitis B virus genotype D subtype adw, UniProt P03147); test: Tryptophan fluorescence titration; assay type: binding; settings: for tryptophan fluorescence quenching: 20 μM Cp149, compound up to 100 μM
# T2 construct: The N-terminal domain of Cp (Cp149) is sufficient for forming regular capsids; made in house; host or cells: E. coli BL21(DE3)
# Experimental: Each of the compounds was titrated into 100 μL of the protein solution to final concentrations of 0, 5, 10, 20, 50, and 100 μM in a clear bottom 96-well plate. […] Tryptophan fluorescence levels were measured by exciting the samples at 285 nm and measuring the emission at 340 nm with the Varioskan Flash (Thermo Fisher) plate reader. […] Fluorescence quenching was calculated by taking the difference of net fluorescence levels of each concentration and of the 0 μM sample. All the samples were run in triplicate, and the results were averaged. The dissociation constants (KD) were fitted by the one-site-specific binding model of GraphPad.[45]
# [3] = MTS cytotoxicity (Table S4)
# [4] = system: HBV DNA replication in HepAD38 cells; test: HBV DNA replication inhibition assay in HepAD38 cells (7 days, PCR of supernatant DNA); assay type: cell-based, hepatitis B virus; settings: Hepatitis B virus; for inhibition at 200 µM: read-out: Anti-HBV activity in HepAD38 cells, % Inh. at 200 µM ± SD
# Experimental: HepAD38 cells were seeded at 50,000 cells/well in collagen-coated 96-well plates. […] The experiment lasted 7 days. On day 7, total DNA was purified from the supernatant using a commercially available kit (DNeasy 96 Blood & Tissue kit, Qiagen). The HBV DNA was amplified in a polymerase chain reaction assay using LightCycler 480 II (Roche), as previously described.[63] All samples were tested in duplicate.
# [5] = system: human peripheral blood mononuclear (PBM) cells; test: MTT cytotoxicity, PBM cells; assay type: cell-based; settings: 100 µM
# Experimental: as §1
# [6] = MTT cytotoxicity, PBM cells; assay type: cell-based, human; settings: human, peripheral blood mononuclear (PBM) cells
# Experimental: as §1
# [7] = MTT cytotoxicity, Vero cells; assay type: cell-based, African green monkey; settings: African green monkey, Vero cells (kidney)
# Experimental: as §1
# [8] = system: PBM, CEM, Vero and HepG2 cells; test: MTT cytotoxicity, four cell lines taken together; assay type: cell-based
# Experimental: as §1
# [9] = system: human liver carcinoma (HepG2) cells; test: MTT cytotoxicity, HepG2 cells; assay type: cell-based; settings: HepG2 cells, 100 µM
# Experimental: as §1
# [10] = system: African green monkey kidney (Vero) cells; test: MTT cytotoxicity, Vero cells; assay type: cell-based; settings: Vero cells, 100 µM
# Experimental: as §1
# [11] = MTT cytotoxicity, four cell lines taken together; assay type: cell-based; settings: human, African green monkey; PBM, CEM, Vero, HepG2; read-out: CC50 in all cell lines
# Experimental: as §1
# [12] = system: T lymphoblast CEM-CCRF (CEM) cells; test: MTT cytotoxicity, CEM cells; assay type: cell-based, human; settings: 100 µM
# Experimental: as §1
# [13] = HePAD38, additional testing, Table S4
# [14] = HePAD38, additional testing, Table S4, read-out: Anti-HBV activity in HepAD38 cells, EC50
# [15] = HepAD38 cells, 10 μM, trial 1, read-out: % HBV DNA Inh. at 10 μM, trial 1
# [16] = HepAD38 cells, 10 μM, trial 2, read-out: % HBV DNA Inh. at 10 μM, trial 2
# [17] = HepAD38 cells, 10 µM, trial 3, read-out: % HBV DNA Inh. at 10 µM, trial 3
# [18] = HepAD38 cells, 10 µM, trial 4, read-out: % HBV DNA Inh. at 10 µM, trial 4
# [19] = HepAD38 cells, 10 μM, read-out: % inhibition in at least one of the trials
# [20] = HepAD38 cells, trial 1, read-out: EC50, trial 1
# [21] = HepAD38 cells, trial 2, read-out: EC50, trial 2
# [22] = HepAD38 cells, trial 3, read-out: EC50, trial 3
# [23] = HepAD38 cells, trial 4, read-out: EC50, trial 4
# T1 sequence (P03147 1-149): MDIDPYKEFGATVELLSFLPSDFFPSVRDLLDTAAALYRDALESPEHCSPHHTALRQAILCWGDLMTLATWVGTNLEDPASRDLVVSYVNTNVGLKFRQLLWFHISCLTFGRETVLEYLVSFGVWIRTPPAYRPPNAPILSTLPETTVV
# T2 sequence (P03147 1-149): as above
SMILES,CC50 [1],"% abnormal capsids, Trial 2 (Cp149 capsid assembly)","% abnormal capsids, Average (Cp149 capsid assembly)",CC50 [2],tryptophan fluorescence quenching (Cp149),IC50 (in vitro),"inhibition at 10 µM [4, 15]","inhibition at 10 µM [4, 16]","inhibition at 10 µM [4, 17]","inhibition at 10 µM [4, 18]","inhibition at 10 µM [4, 19]","EC50 [4, 20]","EC50 [4, 21]","EC50 [4, 22]","EC50 [4, 23]",percent cytotoxicity (cell growth inhibition) at 100 µM [5],CC50 [6],CC50 [7],effect on capsid morphology (TEM) (Cp149 capsid assembly),"% abnormal capsids, Trial 1 (Cp149 capsid assembly)",further results
O=C(NCc1ccc(-c2cccnc2)nc1)c1ccc2nccnc2c1 [GT-46],38 µM,78%,74%,82 µM,moderate fluorescence quenching,> 200 µM,49%,49%,2%,39%,> 50%,≥ 10 µM,≥ 10 µM,> 10 µM,> 100 µM,20%,> 100 µM,53 µM,–,–,"Kd (Cp149; KD, one site specific binding model, Table S7): 263 µM; Kd (Cp149; dissociation constant (KD), estimated, 20 μM Cp149, single-site fit): 263 µM; MTS cytotoxicity, % Inh. at 200 µM [3]: < 1%; inhibition at 200 µM [4, 13]: 25.6 ± 2.5%; EC50 [4, 14]: > 200 µM"
CCn1ccnc1-c1c(-c2ccccc2)ncn1CCCc1cccnc1 [GT-39],16 µM,36%,–,> 100 µM,reproducible but modest fluorescence quenching,> 200 µM,57%,50%,< 1%,36%,> 50%,< 10 µM,10 µM,> 10 µM,> 100 µM,22%,> 100 µM,> 100 µM,induced misdirected products,45%,"toxicity in at least one cell line tested [8]: 16 to 18 µM; percent cytotoxicity (MTT) at 100 µM, HepG2 [9]: 32%; MTS cytotoxicity, % Inh. at 200 µM [3]: < 1%; inhibition at 200 µM [4, 13]: 39.1 ± 1.5%; EC50 [4, 14]: > 200 µM; % cytotoxicity (MTT) at 100 µM [10]: 47%"
O=C(OCc1ccc(-c2cnc3ccccc3n2)cc1)c1cccs1 [GT-32],52 µM,85%,–,59 µM,moderate fluorescence quenching,–,48%,< 1%,< 1%,< 1%,> 50%,≥ 10 µM,> 10 µM,> 10 µM,> 100 µM,–,85 µM,44 µM,–,76%,"Kd (Cp149; 20 μM Cp149, single-site fit, read-out: dissociation constant (KD), estimated): 124 µM; Kd (Cp149; one site specific binding model, Table S7, read-out: KD): 124 µM"
Cc1cc2nc(-c3ccccn3)c(-c3ccccn3)nc2cc1C [GT-5],> 100 µM,–,–,> 100 µM,–,–,24%,–,–,–,–,–,–,–,–,–,> 100 µM,> 100 µM,–,–,"CC50 [11]: > 100 µM; inhibition at 10 µM ([4]; HepAD38 cells, 10 µM, first round of selected compounds, read-out: HBV DNA inhibition (%) at 10 µM): 24.7%"
NCCCC(=O)NCc1nc(-c2cccc(F)c2)c(-c2ccccn2)[nH]1 [GT-45],> 100 µM,35%,38%,> 100 µM,reproducible but modest fluorescence quenching,–,50%,49%,< 1%,< 1%,> 50%,≥ 10 µM,≥ 10 µM,> 10 µM,> 100 µM,41%,> 100 µM,66 µM,induced misdirected products,40%,"% cytotoxicity at 100 µM (MTT), CEM cells [12]: 36%; percent cytotoxicity (MTT) at 100 µM, HepG2 [9]: 41%"
CCOC(=O)c1cc(-c2cc(C(=O)OCC)c3ccccc3n2)nc2ccccc12 [GT-33],> 100 µM,26%,29%,86 µM,reproducible but modest fluorescence quenching,–,60%,37%,< 1%,< 1%,> 50%,< 10 µM,> 10 µM,> 10 µM,> 100 µM,5.6%,> 100 µM,76 µM,induced misdirected products,31%,"% cytotoxicity at 100 µM (MTT), CEM cells [12]: 32%"
Cc1nc(-c2c(-c3ccccc3)ncn2Cc2cccc3[nH]ccc23)c[nH]1 [GT-40],77 µM,11%,10%,> 100 µM,No fluorescence quenching was observed,–,55%,50%,< 1%,< 1%,> 50%,< 10 µM,10 µM,> 10 µM,> 100 µM,19%,> 100 µM,> 100 µM,no apparent effect,8%,"percent cytotoxicity (MTT) at 100 µM, HepG2 [9]: 30%; KD (Cp149; one site specific binding model, Table S7): No binding; % cytotoxicity (MTT) at 100 µM [10]: 39%"
Cc1ccc2[nH]c(CCNc3nccc(-c4ccccn4)n3)nc2c1C [GT-47],> 100 µM,23%,26%,18 µM,reproducible but modest fluorescence quenching,> 200 µM,49%,49%,14%,< 1%,> 50%,≥ 10 µM,≥ 10 µM,> 10 µM,> 100 µM,16%,> 100 µM,> 100 µM,induced misdirected products,28%,"% cytotoxicity at 100 µM (MTT), CEM cells [12]: 48%; toxicity in at least one cell line tested [8]: 16 to 18 µM; MTS cytotoxicity, % Inh. at 200 µM [3]: < 1%; inhibition at 200 µM [4, 13]: < 1%; EC50 [4, 14]: > 200 µM; % cytotoxicity (MTT) at 100 µM [10]: 31%"
